Assays:
cotton, variety D&PL 555 [1] = assay: % defoliation of cotton plants, field trial; type: in vivo; conditions: 20% open boll application, 1 replicate
Experimental: (§1) The trial was performed on cotton, variety D&PL 555. The formulated test compounds were diluted to the appropriate concentrations with water to which a crop oil concentrate (1% to 2% v/v) or a non-ionic surfactant (0.25% v/v) was added. The application of the test composition as a cotton plant growth regulator was performed using pressurized, over-the-top spray equipment consisting of a research scale boom sprayer. Deposit of the test composition was primarily to the top of the cotton plants, minimizing spray deposition to lower branches, leaves and fruit. The finished spray volume was 10 gallons per acre, with sprayer nozzle design, orientation and nozzle pressures chosen to prevent spray drift. Applications were made at first sign of cotton boll opening and at 15%, 20% and 40% open bolls.
(§2) The experimental design used randomized plots with 1 to 4 treatment rates of test composition and from 1 to 10 replications depending on the test (sees tables below). The size of each experimental plot was about 15 m^2. Testing was performed in Texas, North Carolina, Mississippi and Georgia.
(§3) Percent desiccation, percent defoliation, percent terminal control and percent open bolls were evaluated at 7 and 14 days after application (DAA) of the test composition. Inspection of cotton plants for insect control of armyworm larvae was performed at 2 DAA and insect damage to bolls was performed at the time of harvest
Defoliation refers to removal of leaves. Percent defoliation rating approximates the proportion of leaves of all sizes shed per 100 leaves present prior to application of the cotton growth regulator compound. An evaluation of the foliage in the untreated check plots was first undertaken. Then the test plots were individually evaluated. The percent of leaves dropped by the plants in the treated plot was determined using observations within the plot and comparisons to foliage in the untreated plot.
(§4) The results, shown as the mean of the indicated number of replications, were compared with results observed in the same trials with an untreated control.

cotton, variety D&PL 555 [2] = assay: % desiccation of cotton leaves, field trial; type: in vivo
Experimental: as §1, §2, §3
Desiccation refers to leaves or portions of leaves dried to debris following tissue death. […] An evaluation of the condition of leaves in the untreated check plots were observed. Then the test plots were individually evaluated. The percent of all leaves completely or partially desiccated by the test application were recorded, based upon live leaves and leaf debris within the test plot relative to foliage present in the untreated plot.
as §4

CC1=C(C)S(=O)(=O)CCS1(=O)=O [dimethipin, 2,3-dihydro-5,6-dimethyl-1,4-dithiin-1,1,4,4-tetraoxide]
% Defoliation (cotton, variety D&PL 555 [1]; 0.23 lb ai/a, 7 DAA): 28%
% Desiccation (cotton, variety D&PL 555 [2]; 20% open boll application, 0.23 lb ai/a, 7 DAA, 1 replicate): 40%

CCCCCOC(=O)COc1cc(N2C(=O)C3=C(CCCC3)C2=O)c(F)cc1Cl [flumiclorac-pentyl ester, pentyl [2-chloro-4-fluoro-5-(1,3,4,5,6,7-hexahydro-1,3-dioxo-2H-isoindol-2-yl)phenoxy]acetate]
% Desiccation (cotton, variety D&PL 555 [2]; first open boll application, 0.027 lb ai/a, 7 DAA, 3 replicates): 16%
% Desiccation (cotton, variety D&PL 555 [2]; first open boll application, 0.027 lb ai/a, 14 DAA, 3 replicates): 13%
% Desiccation (cotton, variety D&PL 555 [2]; first open boll application, 0.04 lb ai/a, 7 DAA, 3 replicates): 19%
% Desiccation (cotton, variety D&PL 555 [2]; first open boll application, 0.04 lb ai/a, 14 DAA, 3 replicates): 12%

COC(=O)CSc1cc(/N=c2\sc(=O)n3n2CCCC3)c(F)cc1Cl [fluthiacet-methyl, methyl [[2-chloro-4-fluoro-5-[(tetrahydro-3-oxo-1H,3H-[1,3,4]thiadiazolo[3,4-a]pyridazin-1-ylidine)amino]phenyl]thio]acetate]
% Desiccation (cotton, variety D&PL 555 [2]; first open boll application, 0.0018 lb ai/a, 7 DAA, 1 replicate): 25%
% Desiccation (cotton, variety D&PL 555 [2]; first open boll application, 0.0018 lb ai/a, 14 DAA, 1 replicate): 17%

CC(C)N.O=C(O)CNCP(=O)(O)O [glyphosate, N-(phosphonomethyl)glycine isopropylamine salt]
% Defoliation (cotton, variety D&PL 555 [1]; 0.5 lb ai/a, 14 DAA): 7%
% Desiccation (cotton, variety D&PL 555 [2]; 20% open boll application, 0.5 lb ai/a, 14 DAA, 1 replicate): 67%

C[n+]1ccc(-c2cc[n+](C)cc2)cc1.[Cl-].[Cl-] [paraquat, 1,1′-dimethyl-4,4′-bipyridinium dichloride]
% Defoliation (cotton, variety D&PL 555 [1]; 0.13 lb ai/a, 14 DAA): 8%
% Desiccation (cotton, variety D&PL 555 [2]; 20% open boll application, 0.13 lb ai/a, 14 DAA, 1 replicate): 90%

CCOC(=O)COc1cc(-c2nn(C)c(OC(F)F)c2Cl)c(F)cc1Cl [pyraflufen-ethyl, ethyl 2-chloro-5-[4-chloro-5-(difluoromethoxy)-1-methyl-1H-pyrazol-3-yl]-4-fluorophenoxyacetate]
% Desiccation (cotton, variety D&PL 555 [2]; first open boll application, 0.0008 lb ai/a, 7 DAA, 3 replicates): 13%
% Desiccation (cotton, variety D&PL 555 [2]; first open boll application, 0.0008 lb ai/a, 14 DAA, 3 replicates): 11%
% Desiccation (cotton, variety D&PL 555 [2]; first open boll application, 0.0016 lb ai/a, 7 DAA, 3 replicates): 19%
% Desiccation (cotton, variety D&PL 555 [2]; first open boll application, 0.0016 lb ai/a, 14 DAA, 3 replicates): 13%

CCCCSP(=O)(SCCCC)SCCCC [tribufos, S,S,S-tributyl phosphorotrithioate]
% Defoliation (cotton, variety D&PL 555 [1]; 0.14 lb ai/a, 7 DAA): 30%
% Desiccation (cotton, variety D&PL 555 [2]; 20% open boll application, 0.14 lb ai/a, 7 DAA, 1 replicate): 78%
